Bounds are passed on as bounds.

interaction between GST-MAGEA11 MHD and FAM-PCF11_4 peptide (MAGE-A11:PCF11), sequence (P43364 218-429): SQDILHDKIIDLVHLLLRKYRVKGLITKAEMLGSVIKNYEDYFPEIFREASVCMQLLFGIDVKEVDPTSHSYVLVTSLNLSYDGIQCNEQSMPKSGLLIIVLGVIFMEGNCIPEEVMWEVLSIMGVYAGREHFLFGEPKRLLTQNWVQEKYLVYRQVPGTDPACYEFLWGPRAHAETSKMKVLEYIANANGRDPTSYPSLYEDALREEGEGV

The first experiment has as its target interaction between GST-MAGEA11 MHD and FAM-PCF11_4 peptide (MAGE-A11:PCF11) (Homo sapiens (Human), UniProt P43364). The experiment can be described thus: TR-FRET dose response competition assay for disruption of MAGE-A11:PCF11 binding. Particulars: Dose response TR-FRET screening of nine scaffold groups against MAGE-A11:PCF11; read-out: consensus IC50. The method in brief: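 Competition TR-FRET at room temperature in 50 mM Tris pH 7.5, 20 mM MgCl2, 0.1 mg/ml BSA, 1 mM DTT: final 5 nM GST-MAGEA11 MHD, 5 nM Tb-anti-GST, 200 nM FAM-PCF11_4, 90 min. Ratio 520/490 nm converted to % inhibition; IC50 from sigmoidal fit.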
By IC50 is commonly meant the concentration at which inhibition is half-maximal. Regarding `CC1CN(c2oc(-c3ccc([N+](=O)[O-])cc3)nc2C#N)CC(C)O1` (centres unmarked) [SJ000478204-1], the IC50 worked out at 69.9 µM.
On to `Cc1cc(C)cc(Cc2ccc3c(NCCCNCc4cccc5c4OCO5)ccnc3c2)c1` [SJ000311320-1], for which the 50% inhibitory concentration (IC50) was 16.3 µM.
On to `Cc1cc(C)cc(NC2=C(N)C(=O)c3ccccc3C2=O)c1` [SJ000562641-1], for which the 50% inhibitory concentration (IC50) was found to be 55 µM.
On to `Cn1c(=O)c2nc(-c3ccccc3)[nH]c2n(C)c1=O` [SJ000288094-2], for which the IC50 worked out at 69.9 µM.
Regarding `COc1cccc(CNCCCNc2ccnc3cc(Cc4cc(C)cc(C)c4)ccc23)c1O` [SJ000311319-1], the IC50 came to 23.6 µM.
For the compound `COc1ccc2cc(C3Nc4ccccc4C(=O)N3CCCN3CCOCC3)ccc2c1` (centres unmarked) [SJ000803763-1], the IC50 is 67.4 µM.
Same read-out and setting: with `O=C1OCC(c2ccc(Cl)cc2)=C1c1ccc([N+](=O)[O-])cc1` [SJ000413143-1] the figure was 69.9 µM.
For the compound `COc1ccc(F)cc1CNCCCNc1ccnc2cc(C(F)(F)F)ccc12` [SJ000521052-1], the IC50 amounted to 69.9 µM.
Still for that read-out and setting: the result for `COCCCn1c(-c2cc(Br)ccc2F)nc2c1c(=O)[nH]c(=O)n2Cc1ccccc1` [SJ000411586-1] reads 69.9 µM; that for `CCCn1c(=O)[nH]c(=O)c2c1nc(-c1ccc(OC)cc1)n2CCOC` [SJ000423271-1], 69.9 µM.
In the case of `CCOP(=O)(OCC)c1nc(-c2ccc([N+](=O)[O-])cc2)oc1N1CCOCC1` [SJ000092459-1], the IC50 came to 69.9 µM.
With `Cc1ccc(S(=O)(=O)c2nc(-c3ccccc3Br)oc2N2CCOCC2)cc1` [SJ000185415-1], the half-inhibitory concentration (IC50) was determined as 69.9 µM.
Take `COc1ccc(C2Nc3ccccc3C(=O)N2Cc2ccccc2)cc1` (centres unmarked) [SJ000551209-1]: the half-maximal inhibitory concentration (IC50) was found to be 69.9 µM.
Take `C=CCOc1ccc(-c2nc3c(c(=O)[nH]c(=O)n3Cc3ccccc3)n2CCCOC)cc1` [SJ000378880-1]: the 50% inhibitory concentration (IC50) was 69.9 µM.
Take `CCCn1cnc2cc(-c3ccc(Cl)cc3)sc2c1=O` [SJ000452142-1]: the IC50 was 69.9 µM.
For `COCCn1c(-c2ccc(OC)cc2)nc2c1c(=O)[nH]c(=O)n2CC(C)C` [SJ000425224-1], the 50% inhibitory concentration (IC50) stood at 69.9 µM.
Consider `CCOc1ccc(-c2nc(S(=O)(=O)c3ccccc3)c(N3CCOCC3)o2)cc1` [SJ000198209-1], for which the IC50 was 69.9 µM.
With `COc1ccc(F)cc1CNCCCNc1ccnc2cc(Oc3ccccc3)ccc12` [SJ000311209-1], the IC50 is 29 µM.
For `O=C(Cn1cnc2cc(-c3ccccc3)sc2c1=O)NCc1ccccc1OC(F)(F)F` [SJ000456118-1], the half-inhibitory concentration (IC50) came out at 69.9 µM.
With `NC1=C(Nc2cccc3ccccc23)C(=O)c2ccccc2C1=O` [SJ000300361-1], the IC50 came to 69.9 µM.
`Nc1nc(Nc2ccccc2O)nc2ccccc12` [SJ000192933-1]: the half-inhibitory concentration (IC50) worked out at 69.9 µM.
`Fc1cccc(CNCCCNc2ccnc3cc(C(F)(F)F)ccc23)c1` [SJ000521066-1]: the half-inhibitory concentration (IC50) was determined as 69.9 µM.

Still in this experiment, the particulars now being: Table 5, dose response TR-FRET screening of 59 quinoline compounds against MAGE-A11:PCF11; read-out: TR-FRET IC50.
As for `c1coc(CNCCCNc2ccnc3cc(-c4ccc5c(c4)OCO5)ccc23)c1` [SJ000311290-1], the IC50 was more than 70 µM.
The same measure, in the same setting: the result for `CCCN(CCCNc1ccnc2cc(Cl)ccc12)Cc1ccc2[nH]ccc2c1` [SJ000522746-2] reads 2.8 µM.

The experiment is the same for the next values; noted with them: Table 8, representative compounds; read-out: TR-FRET IC50.
For `FC(F)(F)c1ccc2c(NCCCNCc3ccccc3)ccnc2c1` [SJ000361107], the concentration for half-maximal inhibition (IC50) is 69.9 µM.
The same measure, in the same setting: the result for `FC(F)(F)c1ccc2c(NCCCNCc3cccc4c3OCO4)ccnc2c1` [SJ000521048] reads 69.9 µM; that for `Clc1ccc2c(NCCCNCc3ccc4c(c3)OCO4)ccnc2c1` [SJ000523056], 69.9 µM; that for `COc1ccc(F)cc1CNCCCNc1ccnc2cc(CC(C)C)ccc12` [SJ000311261], 69.9 µM.
For the compound `Fc1ccc(CNCCCNc2ccnc3cc(Cl)ccc23)cc1` [SJ000523062], the IC50 worked out at 69.9 µM.
On to `COc1ccccc1CNCCCNc1ccnc2cc(Cl)ccc12` [SJ000311185], for which the IC50 was found to be 69.9 µM.
Take `Clc1ccc2c(NCCCNCc3ccccc3)ccnc2c1` [SJ000361100]: the IC50 turned out to be 69.9 µM.
With `c1cc(CNCCCNc2ccnc3cc(-c4cccc5ccccc45)ccc23)c2c(c1)OCO2` [SJ000311276], the 50% inhibitory concentration (IC50) turned out to be 31.2 µM.
